*1 amine or outer side, *2 acyl side, *3 side chain or, on linkers, in order; H or OH if unused. Where a SMILES comes first, the peptide text is derived from it. Bridges are numbered along the chain shown (N, C = ends). [ ]: non-standard residue; d: D form. Phe(3,4-Cl2) = N[C@@H](Cc1ccc(Cl)c(Cl)c1)C(=O)O; X2 = O=C(CN(CC(=O)[*:2])CC(=O)[*:3])[*:1]; X1 = NCCC(=O)N[C@@H](CN[*:2])C(=O)[*:1]; Ala(cPent) = N[C@@H](CC1CCCC1)C(=O)O; Glutaryl = O=C(CCCC(=O)[*:2])[*:1]; hhPhe = N[C@@H](CCCc1ccccc1)C(=O)O; NMeL = CN[C@@H](CC(C)C)C(=O)O; Orn = NCCC[C@H](N)C(=O)O; βAla = NCCC(=O)O
Assays:
H1 HA A/Brisbane/59/07 = H1 HA A/Brisbane/59/07 (Influenza A virus, UniProt D5F1Q8); assay: AlphaLISA binding competition, HA + stem-binder
Text: (§1) Binding competition studies were designed to test compounds for competition with other well characterized HA binding proteins (including e.g. CR9114) with known epitopes on HA. The epitopes where either located at the stem of the HA (viral membrane proximal part of HA) or, for control purposes, at the head of HA (viral membrane distal part of HA). If competition was observed, it is assumed that both molecules bind to a similar or at least overlapping epitope at the surface of HA. Competition with a HA head- and stem-binder was interpreted as unspecific binding.
(§2) Hereto an AlphaLISA competition assay (Perkin Elmer) was established which relied on biotinylated full length and trimeric HA proteins (Protein Sciences, 10 μL, 0.5 nM final concentration in 50 μL) bound by HA-specific binders. The interaction between HA and the binder was detected after 1 h incubation at room temperature (RT) with two beads, a streptavidin donor bead recognizing HA (10 μL of 10 μg/mL) and an anti Fc bead (10 μg/mL) recognizing the IgGs used. If after an additional hour of incubation at RT the excited donor bead (680 nm) and acceptor bead are in close proximity, an energy transfer (singlet oxygen) can be measured as a luminescence signal of the acceptor bead (Perkin Elmer EnVision plate reader). The signal intensity in this homogeneous assay format is directly proportional to the binding strength (affinity/avidity) between both binding partners.

[1] = biological target: T1, H1 HA A/California/07/2009 (Influenza A virus, UniProt C3W5X2); assay: AlphaLISA binding competition, HA + stem-binder
Text: as §1, §2

[2] = biological target: H1 HA A/New Caledonia/20/1999 (Influenza A virus, UniProt Q6WG00); assay: AlphaLISA binding competition, HA + stem-binder
Text: as §1, §2

[3] = biological target: T1, H1 HA A/California/07/2009; assay: AlphaLISA binding competition, HA + head-binder (control)
Text: as §1, §2

[4] = biological target: HA A/California/07/09 (H1) (Influenza A virus, UniProt C3W5X2); assay: biochemical; type: binding; conditions: for koff: read-out: dissociation rate kd
[5] = biological target: HA A/Vietnam/1194/04 (H5) (Influenza A virus, UniProt A5A5M5); assay: biochemical; type: binding; conditions: for koff: read-out: dissociation rate kd
[6] = biological target: HA A/New Caledonia/20/99 (H1) (Influenza A virus, UniProt Q6WG00); assay: biochemical; type: binding; conditions: for koff: read-out: dissociation rate kd

With CC(=O)N[C@@H](CCCc1ccccc1)C(=O)N[C@H]1CCCNC(=O)CCNC(=O)[C@H](CO)NC(=O)[C@H](CC(C)C)NC(=O)[C@H](Cc2c[nH]c3ccccc23)NC(=O)[C@H](CCC(=O)O)NC(=O)[C@H](Cc2ccccc2)NC(=O)[C@H](Cc2ccc(O)cc2)NC(=O)[C@H](CCC(=O)O)NC(=O)[C@H](CC2CCCC2)NC1=O [CP141036] (Ac-[hhPhe][Orn][Ala(cPent)]EYFEWLS[βAla]; lactam 2-C) the IC50 (H1 HA A/Brisbane/59/07) was 145 nM, the IC50 [1] was 398 nM and the IC50 [2] was 135 nM. It also gave an IC50 [3] of over 50100 nM.
Work on CC(=O)N[C@@H](CCCc1ccccc1)C(=O)N[C@H]1CCCNC(=O)[C@@H](NC(=O)CCN)CNC(=O)[C@H](CO)NC(=O)[C@H](CC(C)C)NC(=O)[C@H](Cc2c[nH]c3ccccc23)NC(=O)[C@H](CCC(=O)O)NC(=O)[C@H](Cc2ccccc2)NC(=O)[C@H](Cc2ccc(O)cc2)NC(=O)[C@H](CCC(=O)O)NC(=O)[C@H](CC(C)C)NC1=O [CP141099] (Ac-[hhPhe][Orn]LEYFEWLS; linker 2-C via X1) yielded an IC50 (H1 HA A/Brisbane/59/07) of 67.6 nM, an IC50 [1] of 58.9 nM and an IC50 [2] of 27.5 nM. For the same compound, the Kd [4] was 26.3 nM, the koff [4] was 0.252 s⁻¹ and the Kd [5] was 27.5 nM. It also gave a koff [5] of 0.0652 s⁻¹, a Kd [6] of 25.1 nM and a koff [6] of 0.101 s⁻¹. The IC50 [3] was over 50100 nM.
For CC(=O)N[C@@H](CCCc1ccccc1)C(=O)N[C@H]1CCCNC(=O)CCNC(=O)[C@H](CO)NC(=O)[C@H](CC(C)C)NC(=O)[C@H](Cc2c[nH]c3ccccc23)NC(=O)[C@H](CCC(=O)O)NC(=O)[C@H](Cc2ccccc2)NC(=O)[C@H](Cc2ccc(O)cc2)NC(=O)[C@H](CCC(=O)O)NC(=O)[C@H](CC(C)C)N(C)C1=O [CP141037] (Ac-[hhPhe][Orn][NMeL]EYFEWLS[βAla]; lactam 2-C), the IC50 (H1 HA A/Brisbane/59/07) was 87.1 nM, the IC50 [1] was 204 nM and the IC50 [2] was 81.3 nM. The Kd [4] was 61.7 nM, the koff [4] was 0.184 s⁻¹ and the Kd [5] was 64.6 nM. For the same compound, the koff [5] was 0.0845 s⁻¹, the Kd [6] was 44.7 nM and the koff [6] was 0.0753 s⁻¹. For the same compound, the IC50 [3] was over 50100 nM.
CC(=O)N[C@@H](CCCc1ccccc1)C(=O)N[C@H]1CCCNC(=O)CCNC(=O)[C@H](CO)NC(=O)[C@H](CC(C)C)NC(=O)[C@H](Cc2c[nH]c3ccccc23)NC(=O)[C@H](CCC(=O)O)NC(=O)[C@H](Cc2ccc(Cl)c(Cl)c2)NC(=O)[C@H](Cc2ccc(O)cc2)NC(=O)[C@H](CCC(=O)O)NC(=O)[C@H](CC(C)C)NC1=O [CP141019] (Ac-[hhPhe][Orn]LEY[Phe(3,4-Cl2)]EWLS[βAla]; lactam 2-C) gave an IC50 (H1 HA A/Brisbane/59/07) of 46.8 nM, an IC50 [1] of 70.8 nM and an IC50 [2] of 50.1 nM. For the same compound, the Kd [4] was 17 nM, the koff [4] was 0.182 s⁻¹ and the Kd [5] was 31.6 nM. For the same compound, the koff [5] was 0.0533 s⁻¹, the Kd [6] was 17.8 nM and the koff [6] was 0.0589 s⁻¹. The IC50 [3] was over 50100 nM.
CC(=O)N[C@@H](CCCc1ccccc1)C(=O)N[C@H]1CCCNC(=O)CCNC(=O)[C@H](CO)NC(=O)[C@H](CC(C)C)NC(=O)[C@H](Cc2c[nH]c3ccccc23)NC(=O)[C@H](CCC(=O)O)NC(=O)[C@H](Cc2ccccc2)NC(=O)[C@H](Cc2ccc(O)cc2)NC(=O)[C@H](CCCNC(=N)N)NC(=O)[C@H](CC(C)C)NC1=O [CP132070] (Ac-[hhPhe][Orn]LRYFEWLS[βAla]; lactam 2-C) was tested, and the IC50 [1] was 288 nM, the IC50 [2] was 178 nM and the IC50 [3] was over 50100 nM.
CC(=O)N[C@@H](CCCNC(=N)N)C(=O)N[C@H]1CCCNC(=O)CN2CC(=O)NCCC[C@@H](C(N)=O)NC(=O)[C@H](CO)NC(=O)[C@H](CC(C)C)NC(=O)[C@H](Cc3c[nH]c4ccccc34)NC(=O)[C@H](CCC(=O)O)NC(=O)[C@H](Cc3ccccc3)NC(=O)[C@H](Cc3ccc(O)cc3)NC(=O)[C@H](CCCNC(=O)C2)NC(=O)[C@H](CC(C)C)NC1=O [CP141032] (Ac-R[Orn]L[Orn]YFEWLS[Orn]-NH2; linker 2-4-11 via X2) showed an IC50 [1] of 9550 nM, an IC50 [2] of 2240 nM and an IC50 [3] of over 50100 nM.
CC(=O)N[C@@H](CCCc1ccccc1)C(=O)N[C@H]1CCCNC(=O)CCNC(=O)[C@H](CO)NC(=O)[C@H](CC(C)C)NC(=O)[C@H](Cc2c[nH]c3ccccc23)NC(=O)[C@H](CCC(=O)O)NC(=O)[C@H](Cc2ccccc2)NC(=O)[C@H](Cc2ccc(O)cc2)NC(=O)[C@H](CCCCNC(=O)CCCC(=O)O)NC(=O)[C@H](CC(C)C)NC1=O [CP141066] (Ac-[hhPhe][Orn]LK(Glutaryl)YFEWLS[βAla]; lactam 2-C) was tested, and the IC50 [1] was 245 nM, the IC50 [2] was 186 nM and the IC50 [3] was over 50100 nM.

Source: patent US10738083B2, “Influenza virus neutralizing peptidomimetic compounds” (Janssen Vaccines & Prevention B.V., priority 2015, dated 2020)
